Values belong to the molecule of their own block, whether it stands above or below them.
Legend:
Format in all cases: physicochemical
pKa of the acid = assay: pKa of the acid
Text: The term “weak acid” as used in step (ii) of the method is a term known in the art, and means an acid that partially dissociates in an aqueous solution.

[1] = Crystal sizes measured by laser diffraction; conditions: for Particle Diameter, 10% particles under given diameter / Particle Diameter, 50% particles under given diameter / Particle Diameter, 90% particles under given diameter: laser diffraction; for Particle Diameter, 10% particles under given diameter: 10% of particles under given diameter; for Particle Diameter, 50% particles under given diameter: 50% of particles under given diameter; for Particle Diameter, 90% particles under given diameter: 90% of particles under given diameter
Experimental: The sizes of the crystals of one batch of Product A ((5-fluoro-2-methyl-3-quinolin-2-ylmethylindo-1-yl)-acetic acid recrystallised from DMSO/water as described above in Example 1, step 4) and three batches of Product B ((5-fluoro-2-methyl-3-quinolin-2-ylmethylindo-1-yl)-acetic acid recrystallised from DMSO/water and then treated with potassium carbonate and citric acid as described above in Example 1, step 4a) were measured by laser diffraction and compared.

Solubility in solvents = conditions: in most solvents

pKa (pKa of the acid): 2.8
diameter of 90% of the crystals ([1]; recrystallised from DMSO/water): 50-70 μm
solubility (Solubility in solvents): sparingly soluble in most solvents
Compound: Cc1c(Cc2ccc3ccccc3n2)c2cc(F)ccc2n1CC(=O)O [(5-fluoro-2-methyl-3-quinolin-2-ylmethyl-indol-1-yl)-acetic acid]

Particle Diameter, 10% particles under given diameter ([1]; listed as A): 11.93 μm
Particle Diameter, 10% particles under given diameter ([1]; listed as product A): less than 10 μm
Particle Diameter, 50% particles under given diameter [1]: 30.13 μm
Particle Diameter, 90% particles under given diameter ([1]; listed as A): 52.13 μm
Compound: Cc1c(Cc2ccc3ccccc3n2)c2cc(F)ccc2n1CC(=O)O [Product A, (5-fluoro-2-methyl-3-quinolin-2-ylmethylindo-1-yl)-acetic acid]

Particle Diameter, 10% particles under given diameter ([1]; listed as B (Batch 1)): 0.10 μm
Particle Diameter, 10% particles under given diameter ([1]; listed as B (Batch 2)): 0.20 μm
Particle Diameter, 10% particles under given diameter ([1]; listed as B (Batch 3)): 0.11 μm
Particle Diameter, 50% particles under given diameter ([1]; listed as B (Batch 1)): 0.27 μm
Particle Diameter, 50% particles under given diameter ([1]; listed as B (Batch 2)): 0.37 μm
Particle Diameter, 50% particles under given diameter ([1]; listed as B (Batch 3)): 0.31 μm
Particle Diameter, 90% particles under given diameter ([1]; listed as B (Batch 1)): 0.92 μm
Particle Diameter, 90% particles under given diameter ([1]; listed as B (Batch 2)): 0.80 μm
Particle Diameter, 90% particles under given diameter ([1]; listed as B (Batch 3)): 1.53 μm
Particle Diameter, 90% particles under given diameter ([1]; listed as product B): less than 2 μm
Compound: Cc1c(Cc2ccc3ccccc3n2)c2cc(F)ccc2n1CC(=O)O [Product B, (5-fluoro-2-methyl-3-quinolin-2-ylmethylindo-1-yl)-acetic acid]
